Test results from patent US7579013B2, “Formulations for coated microprojections containing non-volatile counterions” (Alza Corporation, priority 2003, dated 2009).

Test: Solubility in water
Type: physicochemical
Details: at pH about 5

solubility in water (concentration): > 20%
SMILES: CC[C@H](C)[C@H](NC(=O)[C@H](CCC(=O)O)NC(=O)[C@H](CO)NC(=O)[C@@H](NC(=O)[C@@H](N)CO)C(C)C)C(=O)N[C@@H](CCC(N)=O)C(=O)N[C@@H](CC(C)C)C(=O)N[C@@H](CCSC)C(=O)N[C@@H](Cc1cnc[nH]1)C(=O)N[C@@H](CC(N)=O)C(=O)N[C@@H](CC(C)C)C(=O)NCC(=O)N[C@@H](CCCCN)C(=O)N[C@@H](Cc1cnc[nH]1)C(=O)N[C@@H](CC(C)C)C(=O)N[C@@H](CC(N)=O)C(=O)N[C@@H](CO)C(=O)N[C@@H](CCSC)C(=O)N[C@@H](CCC(=O)O)C(=O)N[C@@H](CCCN=C(N)N)C(=O)N[C@H](C(=O)N[C@@H](CCC(=O)O)C(=O)N[C@@H](Cc1c[nH]c2ccccc12)C(=O)N[C@@H](CC(C)C)C(=O)N[C@@H](CCCN=C(N)N)C(=O)N[C@@H](CCCCN)C(=O)N[C@@H](CCCCN)C(=O)N[C@@H](CC(C)C)C(=O)N[C@@H](CCC(N)=O)C(=O)N[C@@H](CC(=O)O)C(=O)N[C@H](C(=O)N[C@@H](Cc1cnc[nH]1)C(=O)N[C@@H](CC(N)=O)C(=O)N[C@@H](Cc1ccccc1)C(=O)O)C(C)C)C(C)C [hPTH(1-34)]
